Assay [1] deals with pDAB1 (Tyr232). Briefly: HRECs treated 5 minutes with recombinant mini-RELN, pDAB1 western blot. The assay is classed as cell-based, human. The following applies: 5 minutes, 4 ug/mL recombinant protein. Here is the method:
For in vitro screening of constructs using recombinant mini-RELN on HRECs, the cells were cultured in EBM-2 media enriched with EGM-2 Single Quots (Lonza) at 37° C. and 5% CO2 and experimentally tested at passage 7. 24 h prior experiment, cells were plated on a 6-well plate at 500,000 cells/mL. Two hours before the experiment, the cells were washed with PBS to remove residual growth media and then incubated with a starving media including EBM-2, 1% GlutaMax+0.2% Normicin. Treatments was conducted using recombinant mini RELN constructs obtained from Innovagen and Recombinant Mouse Reelin Protein from R&D systems (3820-MR-025/CF). Each treatment was incubated for 5 minutes at 4 ug/mL concentration and cells were subsequently harvested in lysis buffer was applied constituted of RIPA (Cell signaling), proteases inhibitors (cOmplete™, Mini, EDTA-free Protease Inhibitor Cocktail, Roche), phosphatases inhibitors (PhosSTOP, Roche), 1 μL of proteasome inhibitor MG-132 10 mM, 1% Triton X 100. The lysates were scraped and centrifugated at 15000 rpm for 10 minutes at 4° C. Total protein levels were quantified via BCA assay. […] We detected pDAB1 (Tyr232; 1:1000, rabbit, #3325 Cell signaling), and total protein staining (Licor). […] To quantify the results, each band was quantified using ImageJ and data expressed as pDABL:total protein ratio normalized to the control.

Assay [2] deals with pDAB1 (Tyr232). Kind of assay: HRECs treated 5 minutes with HEK 293T-derived mini-RELN media, pDAB1 western blot. Type of assay: cell-based, human. The note with it: HEK 293T-derived media 1:1, 1:4, 1:14, 5 minutes. Here is the method: The effect of in vitro treatment with RELN or miniRELN protein was also evaluated. HRECs were cultured in EBM-2 media enriched with EGM-2 Single Quots (Lonza) at 37° C. and 5% CO2 and experimentally tested at passage 7. 24 h prior experiment, cells were plated on a 6-well plate at 500,000 cells/mL. Two hours before the experiment, the cells were washed with PBS to remove residual growth media and then incubated with a starving media including EBM-2, 1% GlutaMax+0,2% Normicin. Treatments was conducted using media derived from HEK 293T cells transiently transfected for 24 h with different mini-RELN constructs in the presence of Lipofectamine 2000. […] Total protein levels were quantified via BCA assay. […] We detected pDAB1 (Tyr232; 1:1000, rabbit, #3325 Cell signaling), and Beta actin (1:5000, mouse, #66009-1-Ig, Proteintech. Antibodies were diluted using Intercept® (TBS) Blocking Buffer and incubated overnight at 4C under gentle shaking. Prior secondary antibody incubation, membranes were washes 2 times using TBS-T for 10 minutes. As secondary antibodies we used IR Dye 800n CW Goat-anti-Rabbit (925-32211, Licor) and IR Dye 680 CW Goat-anti-Mouse (925-68070, Licor) both diluted 1:10000 in blocking buffer for 1 h at room temperature under gentle shaking. Membranes were washed three times with TBS-T prior IR detection using Odyssey imager. […]

For the substance “IL2signalpeptide-6XHistag(SEQ ID NO: 62)-hReelin(AALeu1220-Ile2660) Cterm-REELINWT [225SV]”, the pDAB1 levels result in the assay on pDAB1 (Tyr232) [1] is “increased pDAB1 levels”. Also, the “pDAB1 / Dab1 signaling activation” value in the assay with pDAB1 (Tyr232) [2] is listed as “efficacy”.
